This passage reports IC50 results from patent US9273057B2 (Bristol-Myers Squibb Company, priority 2012, dated 2016).

Structures are written as SMILES.

The target in the experiment is CK2A1 (CK2α/β) (Homo sapiens, UniProt P68400). In words: CK2 kinase assay, CK2A1 (CK2α/β). Format: biochemical. Particulars: Table A; read-out: CK2A1 (CK2α/β) (IC50).
Chain of CK2A1 (CK2α/β) (P68400 whole entry, species assumed): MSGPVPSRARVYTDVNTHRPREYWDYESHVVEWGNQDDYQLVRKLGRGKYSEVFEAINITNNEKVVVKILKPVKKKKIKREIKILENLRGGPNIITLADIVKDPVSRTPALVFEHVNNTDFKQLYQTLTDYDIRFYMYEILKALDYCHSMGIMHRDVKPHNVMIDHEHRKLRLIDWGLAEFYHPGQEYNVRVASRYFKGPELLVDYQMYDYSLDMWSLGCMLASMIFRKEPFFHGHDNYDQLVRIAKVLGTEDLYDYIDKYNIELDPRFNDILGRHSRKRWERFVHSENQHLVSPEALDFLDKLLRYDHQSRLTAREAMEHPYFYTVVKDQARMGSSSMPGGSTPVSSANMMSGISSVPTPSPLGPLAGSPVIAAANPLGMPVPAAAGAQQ
Chain of CK2A1 (CK2α/β) (P67870 whole entry partner, species assumed): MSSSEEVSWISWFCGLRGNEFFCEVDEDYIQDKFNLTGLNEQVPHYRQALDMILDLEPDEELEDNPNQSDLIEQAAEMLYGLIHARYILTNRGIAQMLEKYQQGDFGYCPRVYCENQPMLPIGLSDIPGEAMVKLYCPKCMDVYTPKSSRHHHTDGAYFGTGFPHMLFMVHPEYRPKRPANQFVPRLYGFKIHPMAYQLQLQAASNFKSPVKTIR
Regarding `N#Cc1cc(Nc2nc(NC3CC3)c3ncc(C#N)n3n2)c(Cl)c(N2CCN([C@@H]3CS(=O)(=O)C[C@H]3O)CC2)c1` (racemic) [Example 535, rac-2-((2-chloro-5-cyano-3-(4-((3R,4R)-4-hydroxy-1,1-dioxidotetrahydrothiophen-3-yl)piperazin-1-yl)phenyl)amino)-4-(cyclopropylamino)imidazo[2,1-f][1,2,4]triazine-7-carbonitrile], the IC50 came to 0.91 nM.
The figure for `N#Cc1cc(Nc2nc(NC3CC3)c3ncc(C#N)n3n2)c(F)c(N2CCN([C@@H]3COC[C@H]3O)CC2)c1` (racemic) [Example 552, rac-2-((5-cyano-2-fluoro-3-(4-((3R,4S)-4-hydroxytetrahydrofuran-3-yl)piperazin-1-yl)phenyl)amino)-4-(cyclopropylamino)imidazo[2,1-f][1,2,4]triazine-7-carbonitrile] is 6.31 nM.
Consider `N#Cc1cc(Nc2nc(NC3CC3)c3ncc(C#N)n3n2)c(F)c(N2CCN([C@@H]3CS(=O)(=O)C[C@H]3O)CC2)c1` (racemic) [Example 553, rac-2-((5-cyano-2-fluoro-3-(4-((3R,4R)-4-hydroxy-1,1-dioxidotetrahydrothiophen-3-yl)piperazin-1-yl)phenyl)amino)-4-(cyclopropylamino)imidazo[2,1-f][1,2,4]triazine-7-carbonitrile], for which the IC50 was determined as 5.55 nM.
The figure for `N#Cc1cc(Nc2nc(NC3CC3)c3ncc(C#N)n3n2)c(Cl)c(N2CCN(CC(O)CF)CC2=O)c1` (racemic) [Example 622, (+/−)-2-((2-chloro-5-cyano-3-(4-(3-fluoro-2-hydroxypropyl)-2-oxopiperazin-1-yl)phenyl)amino)-4-(cyclopropylamino)imidazo[2,1-f][1,2,4]triazine-7-carbonitrile] is 1.09 nM; for `CC(O)CN1CCN(c2cc(C#N)cc(Nc3nc(NC4CC4)c4ncc(C#N)n4n3)c2Cl)C(=O)C1` (racemic) [Example 624, (+/−)-2-((2-chloro-5-cyano-3-(4-(2-hydroxypropyl)-2-oxopiperazin-1-yl)phenyl)amino)-4-(cyclopropylamino)imidazo[2,1-f][1,2,4]triazine-7-carbonitrile] it is 2.94 nM; for `CN1CCN2CCN(c3cc(C#N)cc(Nc4nc(NC5CC5)c5ncc(C#N)n5n4)c3Cl)CC2C1=O` (racemic) [Example 626, (+/−)-2-((2-chloro-5-cyano-3-(8-methyl-9-oxohexahydro-1H-pyrazino[1,2-a]pyrazin-2(6H)-yl)phenyl)amino)-4-(cyclopropylamino)imidazo[2,1-f][1,2,4]triazine-7-carbonitrile] it is 0.74 nM.
To `CC(C(N)=O)N1CCC(c2cc(C#N)cc(Nc3nc(NC4CC4)c4ncc(C#N)n4n3)c2Cl)CC1` (racemic) [Example 639, (+/−)-2-(4-(2-chloro-5-cyano-3-((7-cyano-4-(cyclopropylamino)imidazo[2,1-f][1,2,4]triazin-2-yl)amino)phenyl)piperidin-yl)propanamide] belongs 1.28 nM; to `CCNc1nc(Nc2cc(C#N)cc(C3CCN(C(C)C(N)=O)CC3)c2Cl)nn2c(C#N)cnc12` (racemic) [Example 640, (+/−)-2-(4-(2-chloro-5-cyano-3-((7-cyano-4-(ethylamino)imidazo[2,1-f][1,2,4]triazin-2-yl)amino)phenyl)piperidin-1-yl)propanamide], 2.22 nM; to `CC(O)c1cc(C#N)cc(Nc2nc(NC3CC3)c3ncc(C#N)n3n2)c1Cl` (racemic) [Example 677, (+/−)-2-((2-chloro-5-cyano-3-(1-hydroxyethyl)phenyl)amino)-4-(cyclopropylamino)imidazo[2,1-f][1,2,4]triazine-7-carbonitrile], 0.47 nM.
To `CC(c1cc(C#N)cc(Nc2nc(NC3CC3)c3ncc(C#N)n3n2)c1Cl)N1CCN(S(C)(=O)=O)CC1` (racemic) [Example 678] belongs 1.87 nM; to `CC(c1cc(C#N)cc(Nc2nc(NC3CC3)c3ncc(C#N)n3n2)c1Cl)N1CCNC(=O)C1` (racemic) [Example 679, (+/−)-2-((2-chloro-5-cyano-3-(1-(3-oxopiperazin-1-yl)ethyl)phenyl)amino)-4-(cyclopropylamino)imidazo[2,1-f][1,2,4]triazine-7-carbonitrile], 1.22 nM.
For the molecule `N#Cc1cc(Nc2nc(NC3CC3)c3ncc(C#N)n3n2)c(Cl)c(C(O)C(F)(F)F)c1` (racemic) [Example 680, (+/−)-2-((2-chloro-5-cyano-3-(2,2,2-trifluoro-1-hydroxyethyl)phenyl)amino)-4-(cyclopropylamino)imidazo[2,1-f][1,2,4]triazine-7-carbonitrile], the IC50 amounted to 3.73 nM.
To `N#Cc1cc(Nc2nc(NC3CC3)c3ncc(C#N)n3n2)c(Cl)c(C(O)CO)c1` (racemic) [Example 681, (+/−)-2-((2-chloro-5-cyano-3-(1,2-dihydroxyethyl)phenyl)amino)-4-(cyclopropylamino)imidazo[2,1-f][1,2,4]triazine-7-carbonitrile] belongs 0.64 nM.
The figure for `CC(O)(CO)c1cc(C#N)cc(Nc2nc(NC3CC3)c3ncc(C#N)n3n2)c1Cl` (racemic) [Example 682, (+/−)-2-((2-chloro-5-cyano-3-(1,2-dihydroxypropan-2-yl)phenyl)amino)-4-(cyclopropylamino)imidazo[2,1-f][1,2,4]triazine-7-carbonitrile] is 0.32 nM.
To `CN1CCOC(c2cc(C#N)cc(Nc3nc(NC4CC4)c4ncc(C#N)n4n3)c2Cl)C1` (racemic) [Example 694, (+/−)-2-((2-chloro-5-cyano-3-(4-methylmorpholin-2-yl)phenyl)amino)-4-(cyclopropylamino)imidazo[2,1-f][1,2,4]triazine-7-carbonitrile] belongs 1.48 nM.
On to `CC(=O)N1CCOC(c2cc(C#N)cc(Nc3nc(NC4CC4)c4ncc(C#N)n4n3)c2Cl)C1` (racemic) [Example 695, (+/−)-2-((3-(4-acetylmorpholin-2-yl)-2-chloro-5-cyanophenyl)amino)-4-(cyclopropylamino)imidazo[2,1-f][1,2,4]triazine-7-carbonitrile], for which the IC50 came out at 3.7 nM.
To `N#Cc1cc(CN2CCNC(C(F)(F)F)C2)c(Cl)c(Nc2nc(NC3CC3)c3ncc(C#N)n3n2)c1` (racemic) [Example 696, (+/−)-2-((2-chloro-5-cyano-3-((3-(trifluoromethyl)piperazin-1-yl)methyl)phenyl)amino)-4-(cyclopropylamino)imidazo[2,1-f][1,2,4]triazine-7-carbonitrile] belongs 1.48 nM; to `N#Cc1cc(Nc2nc(NC3CC3)c3ncc(C#N)n3n2)c(Cl)c(N2CCOC(CO)C2)c1` (racemic) [Example 697, (+/−)-2-((2-chloro-5-cyano-3-(2-(hydroxymethyl)morpholino)phenyl)amino)-4-(cyclopropylamino)imidazo[2,1-f][1,2,4]triazine-7-carbonitrile], 0.2 nM; to `CN1CCN(c2cc(C#N)cc(Nc3nc(NC4CC4)c4ncc(C#N)n4n3)c2Cl)CC1CO` (racemic) [Example 698, (+/−)-2-({2-chloro-5-cyano-3-[3-(hydroxymethyl)-4-methylpiperazin-1-yl]phenyl}amino)-4-(cyclopropylamino)imidazo[2,1-f][1,2,4]triazine-7-carbonitrile], 1.36 nM.
